The supplement of paper PMC10307832

Columns and labels:
Test in all cases: relative viability (nuclei count vs DMSO), 5 days (fraction); higher = more cells survive
ChaGo-K-1 = tested on: ChaGo-K-1
Procedure, shortened: (§1)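 Medians of duplicate plates are given as relative viability. That measure is the nuclei count in treated wells divided by the count in vehicle wells. Counts were taken on 4× images of lung cancer cell lines in 1536-well plates, 5 days after pin-tool dosing the day after seeding with one drug alone or a fixed anchor-drug dose plus five library-drug doses (not always all listed) in √10 steps.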

NCI-H1666 = tested on: NCI-H1666
Procedure, shortened: as §1

LC-2-ad = tested on: LC-2-ad
Procedure, shortened: as §1

NCI-H2405 = tested on: NCI-H2405
Procedure, shortened: as §1

LCLC-97TM1 = tested on: LCLC-97TM1
Procedure, shortened: as §1

NCI-H661 = tested on: NCI-H661
Procedure, shortened: as §1

NCI-H650 = tested on: NCI-H650
Procedure, shortened: as §1

EPLC-272H = tested on: EPLC-272H
Procedure, shortened: as §1

NCI-H1915 = tested on: NCI-H1915
Procedure, shortened: as §1

NCI-H23 = tested on: NCI-H23
Procedure, shortened: as §1

NCI-H2087 = tested on: NCI-H2087
Procedure, shortened: as §1

COc1cc2nccc(Oc3ccc(NC(=O)Nc4cc(C)on4)c(Cl)c3)c2cc1OC [Tivozanib] + CCNC(=O)c1noc(-c2cc(C(C)C)c(O)cc2O)c1-c1ccc(CN2CCOCC2)cc1 [Luminespib] (partner 0.01 µM) gave a relative viability (ChaGo-K-1; first compound 0.1581 µM) of 0.497, a relative viability (ChaGo-K-1; first compound 0.5 µM) of 0.502 and a relative viability (NCI-H1666; first compound 0.005 µM) of 0.89. It also gave a relative viability (NCI-H1666; first compound 0.01581 µM) of 0.998, a relative viability (NCI-H1666; first compound 0.05 µM) of 0.993 and a relative viability (NCI-H1666; first compound 0.1581 µM) of 1.01. For the same compound, the relative viability (NCI-H1666; first compound 0.5 µM) was 1, the relative viability (LC-2-ad; first compound 0.005 µM) was 1.03 and the relative viability (LC-2-ad; first compound 0.01581 µM) was 1.19. It also gave a relative viability (LC-2-ad; first compound 0.05 µM) of 0.993, a relative viability (LC-2-ad; first compound 0.1581 µM) of 0.945 and a relative viability (LC-2-ad; first compound 0.5 µM) of 0.879. For the same compound, the relative viability (NCI-H2405; first compound 0.005 µM) was 0.644, the relative viability (NCI-H2405; first compound 0.01581 µM) was 0.953 and the relative viability (NCI-H2405; first compound 0.05 µM) was 0.723. It also gave a relative viability (NCI-H2405; first compound 0.1581 µM) of 0.684, a relative viability (NCI-H2405; first compound 0.5 µM) of 0.54 and a relative viability (LCLC-97TM1; first compound 0.005 µM) of 0.845. The relative viability (LCLC-97TM1; first compound 0.01581 µM) was 0.849, the relative viability (LCLC-97TM1; first compound 0.05 µM) was 0.716 and the relative viability (LCLC-97TM1; first compound 0.1581 µM) was 0.898. It also gave a relative viability (LCLC-97TM1; first compound 0.5 µM) of 0.738, a relative viability (NCI-H661; first compound 0.005 µM) of 0.958 and a relative viability (NCI-H661; first compound 0.01581 µM) of 0.956. It also gave a relative viability (NCI-H661; first compound 0.05 µM) of 0.982, a relative viability (NCI-H661; first compound 0.1581 µM) of 0.998 and a relative viability (NCI-H661; first compound 0.5 µM) of 0.953. For the same compound, the relative viability (NCI-H650; first compound 0.005 µM) was 0.807, the relative viability (NCI-H650; first compound 0.01581 µM) was 0.784 and the relative viability (NCI-H650; first compound 0.05 µM) was 0.795. For the same compound, the relative viability (NCI-H650; first compound 0.1581 µM) was 0.692, the relative viability (NCI-H650; first compound 0.5 µM) was 0.708 and the relative viability (EPLC-272H; first compound 0.005 µM) was 0.24. The relative viability (EPLC-272H; first compound 0.01581 µM) was 0.383, the relative viability (EPLC-272H; first compound 0.05 µM) was 0.34 and the relative viability (EPLC-272H; first compound 0.1581 µM) was 0.242. The relative viability (EPLC-272H; first compound 0.5 µM) was 0.443, the relative viability (NCI-H1915; first compound 0.005 µM) was 0.719 and the relative viability (NCI-H1915; first compound 0.01581 µM) was 0.855. It also gave a relative viability (NCI-H1915; first compound 0.05 µM) of 0.848, a relative viability (NCI-H1915; first compound 0.1581 µM) of 0.799 and a relative viability (NCI-H1915; first compound 0.5 µM) of 0.8. It also gave a relative viability (NCI-H23; first compound 0.01581 µM) of 0.198, a relative viability (NCI-H23; first compound 0.05 µM) of 0.193 and a relative viability (NCI-H23; first compound 0.1581 µM) of 0.206. For the same compound, the relative viability (NCI-H23; first compound 0.5 µM) was 0.207, the relative viability (NCI-H2087; first compound 0.005 µM) was 0.135 and the relative viability (NCI-H2087; first compound 0.01581 µM) was 0.209. It also gave a relative viability (NCI-H2087; first compound 0.05 µM) of 0.189, a relative viability (NCI-H2087; first compound 0.1581 µM) of 0.148 and a relative viability (NCI-H2087; first compound 0.5 µM) of 0.147.
